Data from patent publication US11623919B2, “Heterocyclic P2X7 antagonists” (AXXAM S.P.A., priority 2017, dated 2023).

Key:
Experiment in all cases: Screen Quest Fluo-8 No Wash Calcium Assay (Bz-ATP evoked Ca2+ influx, FLIPR)
Assay type in all cases: cell-based
P2X7 receptor [1] = target: T1, P2X7 receptor (Mus musculus, UniProt Q9Z1M0); details: mP2X7; HEK-293 cells stably transfected with P2X7 receptor, Bz-ATP at EC80, Fluo-8 NW; potency ranges A-D
T1 construct: mP2X7 (IC50; nM); other: mP2X7; HEK-293 cells stably transfected with P2X7 receptor, Bz-ATP at EC80, Fluo-8 NW; potency
T1 sequence (Q9Z1M0 1-595): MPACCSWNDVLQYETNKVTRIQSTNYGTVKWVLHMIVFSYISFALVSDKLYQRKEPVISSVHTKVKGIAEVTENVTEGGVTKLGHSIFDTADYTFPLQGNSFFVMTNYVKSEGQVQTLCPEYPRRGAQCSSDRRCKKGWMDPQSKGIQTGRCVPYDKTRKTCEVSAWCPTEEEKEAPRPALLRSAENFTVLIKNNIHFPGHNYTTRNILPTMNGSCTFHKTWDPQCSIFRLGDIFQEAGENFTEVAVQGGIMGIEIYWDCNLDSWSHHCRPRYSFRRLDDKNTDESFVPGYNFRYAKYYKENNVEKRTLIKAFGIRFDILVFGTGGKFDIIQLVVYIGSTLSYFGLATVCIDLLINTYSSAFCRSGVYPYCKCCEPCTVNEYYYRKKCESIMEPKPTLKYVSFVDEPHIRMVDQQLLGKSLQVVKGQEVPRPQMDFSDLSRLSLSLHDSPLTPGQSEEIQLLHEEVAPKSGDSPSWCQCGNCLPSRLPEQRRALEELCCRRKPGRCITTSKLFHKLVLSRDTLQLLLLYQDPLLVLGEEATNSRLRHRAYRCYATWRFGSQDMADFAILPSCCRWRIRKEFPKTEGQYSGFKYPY
Description: (§1) Extracellular binding of Bz-ATP to P2X7 receptor opens the channel and allows Ca2+ influx into the cells. […] Once inside the cell, the lipophilic blocking groups of Fluo-8 are cleaved by non-specific cell esterases, resulting in a negatively-charged fluorescent dye that stays inside cells. Its fluorescence increases upon binding to calcium.
(§2) HEK-293 cells stably transfected with P2X7 receptor were seeded overnight in growth medium at 10,000 to 20,000 cell/well in 384-well plate. 24 hours later, the medium was removed and the cells were pre-loaded at RT for 1 hour with 20 μL/w of Fluo-8 NW. Then 10 μL/w of tests compounds and reference antagonist A438079 at 3×-concentration were injected with the […] and the kinetic response over a period of five minutes was monitored. A second injection of 15 μL/w of 3× reference activator (Bz-ATP at EC80) was performed with the […] and the signal of the emitted fluorescence was recorded for additional three minutes. All the experiment was carried out in a Low Divalent Cation Assay Buffer (0.3 mM Ca^2+ and 0 mM Mg^2+). The effect of the test compounds was measured as percent inhibition vs the reference antagonist and IC50 values were calculated accordingly.

P2X7 receptor [2] = target: T2, P2X7 receptor (Rattus norvegicus, UniProt Q64663); details: rP2X7; HEK-293 cells stably transfected with P2X7 receptor, Bz-ATP at EC80, Fluo-8 NW; potency ranges A-D
T2 construct: rP2X7 (IC50; nM); other: rP2X7; HEK-293 cells stably transfected with P2X7 receptor, Bz-ATP at EC80, Fluo-8 NW; potency
T2 sequence (Q64663 1-595): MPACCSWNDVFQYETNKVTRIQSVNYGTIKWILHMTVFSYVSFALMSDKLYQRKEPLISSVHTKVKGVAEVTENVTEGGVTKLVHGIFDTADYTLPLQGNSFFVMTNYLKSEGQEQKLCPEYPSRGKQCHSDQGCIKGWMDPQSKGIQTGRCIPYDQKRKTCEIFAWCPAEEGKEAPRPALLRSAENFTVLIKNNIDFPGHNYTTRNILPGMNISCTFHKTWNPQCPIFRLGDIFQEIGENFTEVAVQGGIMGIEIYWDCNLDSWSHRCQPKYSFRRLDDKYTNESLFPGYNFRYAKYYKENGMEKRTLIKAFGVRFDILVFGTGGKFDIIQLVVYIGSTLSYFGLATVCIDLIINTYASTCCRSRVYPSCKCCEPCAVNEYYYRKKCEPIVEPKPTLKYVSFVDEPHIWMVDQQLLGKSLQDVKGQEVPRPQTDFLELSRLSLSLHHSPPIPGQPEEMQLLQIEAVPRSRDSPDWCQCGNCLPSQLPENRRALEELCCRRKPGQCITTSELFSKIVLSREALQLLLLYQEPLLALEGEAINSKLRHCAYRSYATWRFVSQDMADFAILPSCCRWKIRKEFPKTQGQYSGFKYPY
Description: as §1, §2

P2X7 receptor [3] = target: T3, P2X7 receptor (Homo sapiens, UniProt Q99572); design: hP2X7 (IC50; nM); other: hP2X7; HEK-293 cells stably transfected with P2X7 receptor, Bz-ATP at EC80, Fluo-8 NW; potency; details: hP2X7; HEK-293 cells stably transfected with P2X7 receptor, Bz-ATP at EC80, Fluo-8 NW; potency ranges A-D
T3 sequence (Q99572 1-595): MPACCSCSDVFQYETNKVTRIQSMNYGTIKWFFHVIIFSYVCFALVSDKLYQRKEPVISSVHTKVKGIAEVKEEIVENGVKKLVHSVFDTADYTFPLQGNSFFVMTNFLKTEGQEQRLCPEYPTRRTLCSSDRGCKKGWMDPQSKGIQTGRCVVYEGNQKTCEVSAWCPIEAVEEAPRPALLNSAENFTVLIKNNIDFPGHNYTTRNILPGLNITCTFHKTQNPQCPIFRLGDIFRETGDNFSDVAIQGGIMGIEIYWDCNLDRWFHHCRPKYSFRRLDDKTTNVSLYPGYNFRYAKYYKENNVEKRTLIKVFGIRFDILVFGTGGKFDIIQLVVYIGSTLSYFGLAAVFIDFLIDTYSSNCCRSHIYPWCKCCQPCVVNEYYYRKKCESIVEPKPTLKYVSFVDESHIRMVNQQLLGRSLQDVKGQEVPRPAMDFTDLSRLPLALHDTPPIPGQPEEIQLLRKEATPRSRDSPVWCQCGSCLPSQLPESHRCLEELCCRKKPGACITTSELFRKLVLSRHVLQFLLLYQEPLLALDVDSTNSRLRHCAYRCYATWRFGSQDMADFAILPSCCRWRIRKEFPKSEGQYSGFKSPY
Description: as §1, §2

| Compound | IC50 (P2X7 receptor [1]) | IC50 (P2X7 receptor [2]) | IC50 (P2X7 receptor [3]) |
| --- | --- | --- | --- |
| CC(c1ccccc1)n1c(Cc2ccc(F)cc2)noc1=O (stereo not drawn) [Example 10, 3-[(4-fluorophenyl)methyl]-4-(1-phenylethyl)-4,5-dihydro-1,2,4-oxadiazol-5-one] | > 10000 nM | 1000 to 10000 nM | 200 to 1000 nM |
| CC(C)(c1c(F)cccc1Cl)c1noc(=O)n1Cc1ccc(F)cc1 [Example 77, 3-[2-(2-chloro-6-fluorophenyl)propan-2-yl]-4-[(4-fluorophenyl)methyl]-4,5-dihydro-1,2,4-oxadiazol-5-one] | > 10000 nM | > 10000 nM | > 10000 nM |
| O=c1onc(Cc2ccc(F)cc2)n1Cc1cc(F)ccc1Br [Example 5, 4-[(2-bromo-5-fluorophenyl)methyl]-3-[(4-fluorophenyl)methyl]-4,5-dihydro-1,2,4-oxadiazol-5-one] | > 10000 nM | > 10000 nM | 1000 to 10000 nM |
| O=c1onc(Cc2c(F)cccc2Cl)n1CC1CC=CC1 [Example 183, 3-[(2-chloro-6-fluorophenyl)methyl]-4-(cyclopent-3-en-1-ylmethyl)-4,5-dihydro-1,2,4-oxadiazol-5-one] | 1000 to 10000 nM | 200 to 1000 nM | 200 to 1000 nM |
| Cc1ncsc1Cn1c(CC2CCC(F)(F)CC2)noc1=O [Example 200, 3-[(4,4-difluorocyclohexyl)methyl]-4-[(4-methyl-1,3-thiazol-5-yl)methyl]-1,2,4-oxadiazol-5(4H)-one] | 200 to 1000 nM | 200 to 1000 nM | 200 to 1000 nM |
| O=c1onc(Cc2c(F)cccc2Cl)n1Cc1ccc(C(F)(F)F)nc1 [Example 37, 3-[(2-chloro-6-fluorophenyl)methyl]-4-{[6-(trifluoromethyl)pyridin-3-yl]methyl}-4,5-dihydro-1,2,4-oxadiazol-5-one] | 1000 to 10000 nM | > 10000 nM | 1000 to 10000 nM |
| O=c1onc(Cc2cccc(F)c2)n1CC1CCC(F)(F)CC1 [Example 151, 4-[(4,4-difluorocyclohexyl)methyl]-3-[(3-fluorophenyl)methyl]-4,5-dihydro-1,2,4-oxadiazol-5-one] | 1000 to 10000 nM | 200 to 1000 nM | 200 to 1000 nM |
| O=c1onc(Cc2ccccc2Cl)n1CC1CCC(F)(F)CC1 [Example 158, 3-[(2-chlorophenyl)methyl]-4-[(4,4-difluorocyclohexyl)methyl]-4,5-dihydro-1,2,4-oxadiazol-5-one] | 200 to 1000 nM | < 200 nM | < 200 nM |
| O=c1onc(Cc2c(F)cccc2Cl)n1Cc1cccnc1 [Example 42, 3-[(2-chloro-6-fluorophenyl)methyl]-4-(pyridin-3-ylmethyl)-4,5-dihydro-1,2,4-oxadiazol-5-one] | > 10000 nM | > 10000 nM | > 10000 nM |
| COc1cccc(Cc2noc(=O)n2Cc2c(F)cccc2Cl)c1 [Example 7, 4-[(2-chloro-6-fluorophenyl)methyl]-3-[(3-methoxyphenyl)methyl]-4,5-dihydro-1,2,4-oxadiazol-5-one] | 1000 to 10000 nM | > 10000 nM | 1000 to 10000 nM |
| Cc1nn(C)c(C)c1Cc1noc(=O)n1CC1CCC(F)(F)CC1 [Example 215, 4-[(4,4-difluorocyclohexyl)methyl]-3-[(trimethyl-1H-pyrazol-4-yl)methyl]-4,5-dihydro-1,2,4-oxadiazol-5-one] | 1000 to 10000 nM | 200 to 1000 nM | < 200 nM |
| O=c1onc(CN2CCC(F)(F)CC2)n1CC1CCCCC1 [Example 222, 4-(cyclohexylmethyl)-3-[(4,4-difluoropiperidin-1-yl)methyl]-4,5-dihydro-1,2,4-oxadiazol-5-one] | 1000 to 10000 nM | 1000 to 10000 nM | > 10000 nM |
| CC#CCn1c(Cc2c(F)cccc2Cl)noc1=O [Example 95, 4-(but-2-yn-1-yl)-3-[(2-chloro-6-fluorophenyl)methyl]-4,5-dihydro-1,2,4-oxadiazol-5-one] | > 10000 nM | > 10000 nM | > 10000 nM |
